# Where two headings read alike, the source gives them in different places.
# Assays:
# [1] = target: T1, rNaV1.4 expressed in CHO cells (Rattus norvegicus, UniProt P15390); assay type: cell-based
# T1 construct: expressed in transfected cells; host or cells: CHO cells
# Method: […] […] It is noteworthy that little or no increase in current was observed during wash off when no depolarizing pulses were applied and peak current was measured as a function of time.
# Since the molecules bind to the open-state of the Nav channel their release also requires activation pulses. In typical experiments, buffered external solution was perfused and a pulse train sequence was applied to the patch-clamp until the current reached a steady-state for at least two minutes.
# [2] = target: T1, rNaV1.4 expressed in CHO cells; test: Activation: current-voltage (I-V) and conductance-voltage (G-V) relationship, whole-cell recording; assay type: cell-based; settings: 50 μM
# Method: To determine if the shift in I-V relationship is affected by the aromaticity of the aconitine C14 benzoate, current-voltage relationships were recorded for control cells expressing NaV, those that had been modified by aconitine, and those that had been modified by aconitine C14-cyclohexanoate 4.8d. For the modified channels, solutions of 50 μM concentration of the respective toxins were perfused onto the cells, and then depolarizing pulses were applied until a steady state current was observed, generally requiring about 1000 pulses. At that time, current-voltage relationships were again recorded. […] A shift towards hyperpolarizing potentials is clearly observed in both cases. Currents recorded at −50 mV are highlighted for all three experiments.
# To determine the effect on current-voltage (I-V) relationship of the aconitine derivatives, whole cell currents were recorded in cells expressing NaV in the presence of aconitine derivatives. Control I-V plots were recorded with unmodified NaV1.4, to which were compared NaV channels modified by aconitine as well as by selected analogs. For the modified channels, solutions of the respective toxins were perfused onto the cells, and then depolarizing pulses were applied until a steady state current was observed, generally requiring about 1000 pulses. A sequence of test pulses was then recorded to determine the current-voltage relationships (using a step protocol in which CHO cells were depolarized for 10 ms from a holding potential of −100 mV to a range of potentials from −95 mV to +30 mV in 5 or 10 mV increments; peak currents were normalized to the maximum peak current and plotted against voltage).
# [3] = total dose; cited from earlier work
# [4] = target: T1, rNaV1.4 expressed in CHO cells; test: Steady-state inactivation, whole-cell recording, Boltzmann fit; assay type: cell-based
# Method: . The channels were modified by perfusing the cells with buffered solution containing aconitine at the given concentrations and then simple pulses (10 ms pulses to 0 mV from −100 mV holding potential) were recorded until the currents leveled to a steady value (typically ˜1000 pulses). Steady-state fast inactivation of the current was then determined by delivering 500 ms conditioning pulses to potentials ranging from −130 to −11 mV (7 my increments) immediately followed by a 10 ms test pulse to 0 mV to test the available current. The peak current measured during the test pulse was normalized to the maximum peak current recorded in the conditioning pulses. […] Midpoint voltage V0.5 represents the membrane potential at which half maximum current is observed; slope factor at midpoint k quantifies the rate at which the inactivation response occurs.
# [5] = target: T1, rNaV1.4 expressed in CHO cells; test: Na+ current block at steady state, whole-cell patch clamp with pulse trains; assay type: cell-based; settings: for depolarizing pulses required to reach steady-state block: 10 Hz pulse trains
# Method: Binding of aconitine to NaV is use-dependent and is known to result both in a left shift of the current-voltage (I-V) relationship and in partial block of the channel. […] To determine whether aconitine binding is reversible, two experiments were designed. First, as block by aconitine is known to be use dependent, peak current was measured as a function of pulse number in the presence of two different concentrations of aconitine. Since aconitine binds preferentially to the open state of the sodium channel, a pulse train was applied sequentially with a control pulse used to record peak current. The pulse train consisted of a series of 50 depolarizing pulses (from −100 mV holding potential to 0 mV, 10 ms duration) applied at 10 Hz frequency, while the control pulse consisted of a single depolarizing pulse (from −100 mV holding potential to 0 mV test potential, 10 ms duration).
# Pulse trains of 10 Hz frequency and control pulses were applied sequentially to cells expressing rNaV1.4, and currents elicited from the control pulse were recorded after each pulse train. This process was repeated until the current elicited from the control pulse had reached a steady state and was no longer decreasing with each additional pulse train. If block were irreversible, this steady state current would be expected to be independent of toxin concentration—the toxin would not be able to dissociate from its receptor, and the number of toxin molecules is much greater than the number of sodium channels (assuming a 100 μL chamber containing 1000 CHO cells, each expressing 10,000 sodium channels, at 50 μM concentration toxin molecules outnumber receptors by a factor of 3×10^8:1), therefore, all receptors would eventually reach the bound state.
# Block by aconitine is known to be use-dependent, therefore the use-dependence of the C14 derivatives of aconitine was evaluated. Peak Na current was measured as a function of pulse number in the presence of different concentrations of the molecules. […] Since aconitine binds preferentially to the open state of the sodium channel, a pulse train was applied sequentially with a control pulse used to record peak current. The pulse train consisted of a series of 50 depolarizing pulses (from −100 mV holding potential to 0 mV, 10 ms duration) applied at 10 Hz frequency, while the control pulse consisted of a single depolarizing pulse (from −100 mV holding potential to 0 mV test potential, 10 ms duration).
# Pulse trains of 10 Hz frequency and control pulses were applied sequentially to CHO cells expressing rNaV1.4, and currents elicited from the control pulse were recorded after each pulse train. This process was repeated until the current elicited from the control pulse had reached a steady state and was no longer decreasing with each additional pulse train. If block were irreversible, this steady state current would be expected to be independent of toxin concentration—the toxin would not be able to dissociate from its receptor, and the number of toxin molecules is much greater than the number of sodium channels, therefore, all receptors would eventually reach the bound state.
# The ability of the synthesized aconitine derivatives to block NaV channels was evaluated with patch-clamp experiments in the whole-cell configuration on CHO cells expressing rNaV1.4 heterologously. A buffer solution containing the toxin was applied to the cells, whole-cell Na^+ currents were recorded until the decreasing current reached a steady-state (300 to 3000 pulses, depending on the molecules and concentrations). The peak Na^+ currents were measured with a depolarizing test pulse (from −100 mV holding potential to 0 mV test potential, 10 ms duration).
# T1 sequence (P15390 whole entry): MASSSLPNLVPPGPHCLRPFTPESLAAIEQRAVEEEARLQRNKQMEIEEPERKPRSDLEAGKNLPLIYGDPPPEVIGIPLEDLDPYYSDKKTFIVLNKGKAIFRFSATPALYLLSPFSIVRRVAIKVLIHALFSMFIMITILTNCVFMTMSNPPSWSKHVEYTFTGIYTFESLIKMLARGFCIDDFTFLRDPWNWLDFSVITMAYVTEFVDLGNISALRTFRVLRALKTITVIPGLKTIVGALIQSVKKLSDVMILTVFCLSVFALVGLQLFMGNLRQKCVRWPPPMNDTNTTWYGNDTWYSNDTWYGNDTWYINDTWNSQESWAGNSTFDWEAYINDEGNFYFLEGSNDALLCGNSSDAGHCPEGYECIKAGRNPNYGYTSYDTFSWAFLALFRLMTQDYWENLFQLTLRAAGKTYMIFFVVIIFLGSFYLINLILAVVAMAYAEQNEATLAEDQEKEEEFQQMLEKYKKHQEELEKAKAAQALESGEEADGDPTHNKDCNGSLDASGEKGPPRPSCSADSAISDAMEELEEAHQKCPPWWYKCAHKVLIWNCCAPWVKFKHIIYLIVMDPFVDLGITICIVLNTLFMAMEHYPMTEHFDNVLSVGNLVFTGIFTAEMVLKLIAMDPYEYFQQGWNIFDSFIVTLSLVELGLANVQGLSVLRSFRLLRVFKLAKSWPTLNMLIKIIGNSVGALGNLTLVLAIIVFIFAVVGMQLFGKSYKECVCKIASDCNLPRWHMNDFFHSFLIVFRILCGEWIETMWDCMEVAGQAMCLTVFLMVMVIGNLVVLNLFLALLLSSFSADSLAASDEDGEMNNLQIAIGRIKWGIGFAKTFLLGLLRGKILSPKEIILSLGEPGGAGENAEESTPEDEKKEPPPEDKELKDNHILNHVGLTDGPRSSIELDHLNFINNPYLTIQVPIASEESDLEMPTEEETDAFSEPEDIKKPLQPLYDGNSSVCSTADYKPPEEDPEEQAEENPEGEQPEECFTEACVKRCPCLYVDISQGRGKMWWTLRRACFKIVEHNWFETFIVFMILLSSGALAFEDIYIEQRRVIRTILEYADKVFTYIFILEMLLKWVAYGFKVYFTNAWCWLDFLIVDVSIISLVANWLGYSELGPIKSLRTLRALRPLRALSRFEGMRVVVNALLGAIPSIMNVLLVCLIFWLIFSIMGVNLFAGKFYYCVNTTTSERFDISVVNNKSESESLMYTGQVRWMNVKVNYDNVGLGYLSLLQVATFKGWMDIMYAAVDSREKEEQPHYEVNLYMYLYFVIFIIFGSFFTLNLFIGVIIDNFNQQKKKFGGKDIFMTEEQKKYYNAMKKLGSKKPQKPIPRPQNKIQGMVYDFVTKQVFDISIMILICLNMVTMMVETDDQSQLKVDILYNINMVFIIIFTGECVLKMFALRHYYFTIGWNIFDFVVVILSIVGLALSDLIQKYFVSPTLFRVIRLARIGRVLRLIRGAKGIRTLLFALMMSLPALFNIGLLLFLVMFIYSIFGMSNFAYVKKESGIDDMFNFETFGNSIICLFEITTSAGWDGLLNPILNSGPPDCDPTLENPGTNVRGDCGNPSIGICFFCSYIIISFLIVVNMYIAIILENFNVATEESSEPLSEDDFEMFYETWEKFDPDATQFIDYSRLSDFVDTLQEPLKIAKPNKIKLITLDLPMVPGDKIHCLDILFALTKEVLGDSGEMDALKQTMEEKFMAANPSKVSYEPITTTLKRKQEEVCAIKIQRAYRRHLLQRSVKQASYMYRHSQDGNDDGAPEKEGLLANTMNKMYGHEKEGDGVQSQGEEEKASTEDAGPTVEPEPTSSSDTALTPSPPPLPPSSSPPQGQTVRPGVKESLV
compound,measurement,setting,value
"CCN1CC2(COC)C3C(OC)C4C1C3(C1C[C@@]3(O)[C@H](OC(=O)c5ccccc5)[C@@H]1[C@]4(OC(C)=O)[C@@H](O)[C@@H]3OC)[C@@H](OC)C[C@H]2O (some centres unmarked) [Aconitine, aconitine]",current restoration during wash off,"[1]; after 200 μM and 1000 depolarizing pulses, toxin-free buffer with pulses",significant current restoration
same,Current after wash-off (%),[1]; after wash-off of 20 μM,94%
same,Current after wash-off (%),[1]; after wash-off of 75 μM,62%
same,Activation V0.5 (mV),[2],−40.3 mV
same,Activation hg,[2],10.4
same,membrane potential at which maximum inward Na current occurs,[2],around −10 mV
same,current at −50 mV,"[2]; after about 1000 pulses, no current in control cells",substantial currents
same,"lethal doses in humans, estimated",[3],1 to 5 mg
same,Steady-state inactivation V0.5 (mV),[4]; 5 μM,−65.1 mV
same,Steady-state inactivation k (slope factor at midpoint),[4]; 5 μM,6.50
same,Steady-state inactivation V0.5 (mV),[4]; 50 μM,−65 mV
same,Steady-state inactivation k (slope factor at midpoint),[4]; 50 μM,5.97
same,Steady-state inactivation V0.5 (mV),[4]; 200 μM,−82.4 mV
same,Steady-state inactivation k (slope factor at midpoint),[4]; 200 μM,21.0
same,peak current blocked at steady state,[5],40%
same,% Remaining current after reaching steady-state binding,[5]; 5 μM,40%
same,% Remaining current after reaching steady-state binding,[5]; 20 μM,19%
same,peak current blocked at steady state,[5]; 20 μM,81%
same,Current measured at 20 μM (%),"[5]; 20 μM, before wash-off",19%
same,depolarizing pulses required to reach steady-state block,[5]; 20 μM,around 600 pulses
same,% Remaining current after reaching steady-state binding,[5]; 50 μM,13%
same,peak current blocked at steady state,[5]; 50 μM,83%
same,depolarizing pulses required to reach steady-state block,[5]; 50 μM,approximately 800 pulses
same,% Remaining current after reaching steady-state binding,"[5]; 50 μM, listed as aconitine",15%
same,% Remaining current after reaching steady-state binding,[5]; 75 μM,13%
same,peak current blocked at steady state,[5]; 75 μM,87%
same,Current measured at 75 μM (%),"[5]; 75 μM, before wash-off",13%
same,depolarizing pulses required to reach steady-state block,[5]; 75 μM,800 pulses
same,% Remaining current after reaching steady-state binding,[5]; 200 μM,5%
same,peak current blocked at steady state,[5]; 200 μM,approximately 94%
same,depolarizing pulses required to reach steady-state block,[5]; 200 μM,300 pulses
same,depolarizing pulses required to reach steady-state block,[5]; 5 (unit not printed),over 2500 pulses
